{
  "source": "patent US20020090352A1",
  "about": "“Compositions and methods for use in modulating immune system function” (priority 2000, published 2002)",
  "key": {"[1]": {"system": "immature LC (Langerhans cells)", "assay": "Survival of immature LC, viable cell count with trypan blue exclusion", "conditions": "1000 nM tRA; Compound II 1000 nM, Z-Vad-fmk 50 nM"}, "[2]": {"system": "immature LC (Langerhans cells)", "assay": "Apoptosis of immature LC, flow cytometry of PI stained nuclei (sub 2N particles) / annexin V", "type": "cell-based, human", "conditions": "for percentage of apoptotic (<2N) particles: Cmpd. II 1 μM, Cmpd. VIII 1 μM, Z-Vad 50 μM, TNFα 10 ng/ml, CD40L coculture"}},
  "note": "Peptide text beside a SMILES is read from it. * marks the point of attachment. Cbz = O=C(OCc1ccccc1)*; CH2F = FC*",
  "data": [
    {"smiles": "COC(=O)C[C@H](NC(=O)[C@H](C)NC(=O)[C@@H](NC(=O)OCc1ccccc1)C(C)C)C(=O)CF", "note": "[Z-Vad-fmk, reference compound] (Cbz-Val-Ala-Asp(OMe)-CH2F)", "values": [
      {"measurement": "inhibition of tRA mortality", "setting": "[1]", "value": "> 80", "unit": "%"},
      {"measurement": "percentage of apoptotic (<2N) particles", "setting": "[2]; agent + Cmpd. I 1 μM", "value": "9 ± 7", "unit": "%"},
      {"measurement": "percentage of apoptotic (<2N) particles", "setting": "[2]; agent + Compound I 100 nM + SR11237 100 nM", "value": "11 ± 4", "unit": "%"},
      {"measurement": "percentage of apoptotic (<2N) particles", "setting": "[2]; agent + tRA 1 μM", "value": "9 ± 4", "unit": "%"},
      {"measurement": "percentage of apoptotic (<2N) particles", "setting": "[2]; agent alone (column 0)", "value": "≦5%"},
      {"measurement": "inhibition of retinoid-induced apoptosis / cell death of immature LC", "setting": "[2]; result in words", "value": "blocked"}
    ]}
  ]
}
